Source: patent US9650390B2, “Water-soluble taxane derivatives and uses thereof” (priority 2014, dated 2017)

Assays:
[1] = In vitro dissociation in blood plasma of rat; assay type: in vitro ADME, SD rats; settings: fresh SD rat plasma, 37° C.; for Sampling time/Dissociation percent (%) 2 min: 2 min incubation; for Sampling time/Dissociation percent (%) 5 min: 5 min incubation; for Sampling time/Dissociation percent (%) 10 min: 10 min incubation
Procedure: The obtained water soluble taxane derivatives of the following formulae were formulated as 0.2 mg/ml aqueous solutions. […] After 2 min, 5 min and 10 min of incubation, 0.2 ml of solutions were respectively taken from each of the samples, and added to acetonitrile (0.4 ml) cooled to −20° C. for precipitation of protein.

[2] = physiological saline
[3] = In vitro dissociation in blood plasma of rabbit; assay type: in vitro ADME, New Zealand white rabbits; settings: fresh New Zealand white rabbit plasma, 37° C.
Procedure: The obtained water soluble taxane derivatives of the following formulae were formulated as 0.2 mg/ml aqueous solutions. […]

Structure (SMILES) | Sampling time/Dissociation percent (%) 2 min [1] [%] | Sampling time/Dissociation percent (%) 5 min [1] [%] | Sampling time/Dissociation percent (%) 10 min [1] [%] | Solubility [2] [µg/mL] | Sampling time/Dissociation percent (%) 2 min [3] [%] | Sampling time/Dissociation percent (%) 5 min [3] [%] | Sampling time/Dissociation percent (%) 10 min [3] [%]
CC(=O)O[C@@]12CO[C@@H]1CC[C@@]1(C)[C@@H]3O[C@H](CN(C)C)O[C@@H]3C3=C(C)[C@@H](OC(=O)[C@H](OC(=O)[C@H](F)CC(C)N(C)C)[C@@H](NC(=O)OC(C)(C)C)c4ncccc4F)C[C@@](O)([C@@H](OC(=O)c4ccccc4)[C@@H]12)C3(C)C.Cl (stereo partly drawn) [Compound C17, 2′-O-[4-N,N-dimethylamino-2(R)-fluorovaleryl]tesetaxel hydrochloride] | 60.7 | 95.5 | 100 | 1000 | 69.7 | 96.8 | 100
CC(=O)O[C@@]12CO[C@@H]1C[C@H](O)[C@@]1(C)C(=O)[C@H](O)C3=C(C)[C@@H](OC(=O)[C@H](OC(=O)[C@H](F)CC(C)N(C)C)[C@@H](NC(=O)OC(C)(C)C)c4ccccc4)C[C@@](O)([C@@H](OC(=O)c4ccccc4)[C@H]21)C3(C)C.Cl (stereo partly drawn) [Compound C13, 2′-O-[4-N,N-dimethylamino-2(R)-fluorovaleryl]docetaxel hydrochloride] | 44.8 | 84.8 | 92.7 | 2300 | 46.2 | 78.9 | 93.4
CC(=O)OC1C(=O)C23CC2CC2OCC2(OC(C)=O)C3C(OC(=O)c2ccccc2)C2(O)CC(OC(=O)C(OC(=O)C(F)CC(C)N(C)C)C(NC(=O)OC(C)(C)C)c3ccccc3)C(C)=C1C2(C)C.CS(=O)(=O)O [Compound 16, 2′-O-[4-N,N-dimethylamino-2(R)-fluorovaleryl]larotaxel methanesulfonate] | 60.2 | 92.1 | 100 | 11100 | 63.2 | 94.1 | 100
